According to PMC2913105 (British Journal of Pharmacology, 2010):

Legend:
P2Y receptors = assay: Ca2+ signals; format: cell-based, rat; settings: for Δ[Ca2+]i Peak: peak increase in [Ca2+]i, populations of cultured ASMC; for pEC50 Peak (with Ca2+): peak response in HBS; for pEC50 Ca2+ entry: sustained Ca2+ entry signal; for Δ[Ca2+]i Sustained: sustained increase measured between 250 and 300 s, cultured ASMC; for pEC50 Peak (Ca2+-free): peak response in Ca2+-free HBS
Gi/o = format: cell-based, rat
[1] = ref Abbracchio et al., 2006; cited from earlier work
phospholipase C = format: cell-based, rat
P2X1 and P2X3 receptors = settings: not shown
P2Y14 receptors = molecular target: T1, P2Y14 receptors (Rattus norvegicus, UniProt O35881); format: cell-based; settings: agonist 10 µM; not shown
T1 sequence (O35881 1-305): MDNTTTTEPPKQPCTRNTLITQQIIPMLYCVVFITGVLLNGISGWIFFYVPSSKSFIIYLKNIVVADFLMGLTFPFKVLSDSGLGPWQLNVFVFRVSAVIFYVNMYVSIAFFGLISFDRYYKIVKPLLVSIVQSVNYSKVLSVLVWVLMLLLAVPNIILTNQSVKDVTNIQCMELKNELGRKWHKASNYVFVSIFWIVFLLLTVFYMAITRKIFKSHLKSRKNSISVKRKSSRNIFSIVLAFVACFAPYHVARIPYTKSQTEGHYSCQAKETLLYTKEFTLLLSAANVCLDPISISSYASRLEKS

Row | Molecule | Δ[Ca2+]i Peak (P2Y receptors) [nM] | pEC50 Peak (with Ca2+) (P2Y receptors) | pEC50 Ca2+ entry (P2Y receptors) | Δ[Ca2+]i Sustained (P2Y receptors) [nM] | further results
1 | CSc1nc(N)c2ncn([C@@H]3O[C@H](COP(=O)(O)OP(=O)(O)O)[C@@H](O)[C@H]3O)c2n1 [2-MeSADP, 2-methylthio-adenosine-5′-diphosphate] | 122 ± 30 | 7.23 ± 0.53 | 5.58 ± 0.16 | 18 ± 4 | 
2 | O=c1ccn([C@@H]2O[C@H](COP(=O)(O)OP(=O)(O)OP(=O)(O)O)[C@@H](O)[C@H]2O)c(=S)[nH]1 [2-thio-UTP, 2-thio-uridine-5′-triphosphate] | 327 ± 42 | 5.89 ± 0.29 |  | 88 ± 26 | 
3 | N[C@@H]1[C@H](O)[C@@H](COP(=O)(O)OP(=O)(O)OP(=O)(O)O)O[C@H]1n1ccc(=O)[nH]c1=O [2′-amino-UTP, 2′-amino-2′-deoxyuridine-5′-triphosphate] | 301 ± 34 | 5.58 ± 0.37 | 5.40 ± 0.23 | 84 ± 36 | 
4 | [N-]=[N+]=N[C@@H]1[C@H](O)[C@@H](COP(=O)(O)OP(=O)(O)OP(=O)(O)O)O[C@H]1n1ccc(=O)[nH]c1=O [2′-azido-UTP, 2′-azido-2′-deoxyuridine-5′-triphosphate] | 142 ± 29 | 4.67 ± 0.32 | 4.67 ± 0.06 | 55 ± 20 | 
5 | Nc1ncnc2c1ncn2[C@@H]1O[C@H](COP(=O)(O)OP(=O)(O)OP(=O)(O)O)[C@@H](O)[C@H]1O [ATP] | 248 ± 48 | 5.83 ± 0.03 | 5.01 ± 0.13 | 64 ± 20 | pEC50 of ATP, peak Ca2+ signal, after Pertussis toxin (Gi/o): 5.30 ± 0.08; pEC50 of ATP, peak Ca2+ signal, without Pertussis toxin (Gi/o; paired control): 5.63 ± 0.09; pEC50 Peak (Ca2+-free) (P2Y receptors): 5.95 ± 0.10
6 | CSc1nc(N)c2ncn([C@H]3[C@H](O)[C@H](O)[C@]4(COP(=O)(O)OP(=O)(O)O)C[C@H]34)c2n1 [MRS2365, (N)-methanocarba-2-MeSADP] | 154 ± 5 | 8.68 ± 0.16 | 8.11 ± 0.32 | 18 ± 7 | pEC50 Peak (Ca2+-free) (P2Y receptors): 8.56 ± 0.06
7 | S=C=Nc1cccc(NC(=S)NCCCCNC(=S)Nc2cccc(N=C=S)c2)c1 [MRS2578, N,N″-1,4-butanediylbis [N′-(3-isothiocyanatophenyl)thio] urea] |  |  |  |  | Solubility in aqueous solution [1]: sparingly soluble; Stability in aqueous solution [1]: unstable
8 | COc1ccc2c(c1)CC[C@@H]1[C@@H]2CC[C@]2(C)[C@@H](NCCCCCCN3C(=O)C=CC3=O)CC[C@@H]12 [U73122, 1-[6-[[(17β)-3-methoxyestra-1,3,5 (10)-trien-17-yl]amino]hexyl]-1H-pyrrole-2,5-dione] |  |  |  |  | pIC50 for inhibition of Ca2+ signals evoked by ATP (phospholipase C; ATP 100 µM, inhibitor added 5 min before and during stimulation): 5.78 ± 0.07; Effect on Ca2+ responses to UTP and UDP (phospholipase C; not shown): abolished
9 | COc1ccc2c(c1)CC[C@@H]1[C@@H]2CC[C@]2(C)[C@@H](NCCCCCCN3C(=O)CCC3=O)CC[C@@H]12 [U73343, 1-[6-[((17β)-3-methoxyestra-1,3,5 (10)-trien-17-yl)amino]hexyl]-2,5-pyrrolidinedione] |  |  |  |  | Effect on Ca2+ signals evoked by ATP (phospholipase C; ATP 100 µM, inactive analogue of U73122): no effect
10 | O=c1ccn([C@@H]2O[C@H](COP(=O)(O)OP(=O)(O)O)[C@@H](O)[C@H]2O)c(=O)[nH]1 [UDP] | 94 ± 20 | 6.45 ± 0.45 | 6.83 ± 0.35 | 25 ± 6 | pEC50 Peak (Ca2+-free) (P2Y receptors): 6.16 ± 0.43
11 | O=c1ccn([C@@H]2O[C@H](COP(=O)(O)OP(=O)(O)OP(=O)(O)O)[C@@H](O)[C@H]2O)c(=O)[nH]1 [UTP] | 254 ± 47 | 5.23 ± 0.22 | 4.64 ± 0.32 | 67 ± 5 | pEC50 Peak (Ca2+-free) (P2Y receptors): 5.39 ± 0.15
12 | Nc1ncnc2c1ncn2C1OC(COP(=O)(O)CP(=O)(O)OP(=O)(O)O)C(O)C1O (stereo not drawn) [αβ-meATP, αβ-methylene-adenosine-5′-triphosphate] |  |  |  |  | Ca2+ response in cultured ASMC (P2X1 and P2X3 receptors): no response
13 | Pertussis toxin |  |  |  |  | Effect on responses to UDP (Gi/o; Pertussis toxin 100 ng·mL−1, 24 h): unaffected
14 | diphosphoric acid 1-α-D-glucopyranosyl ester 2-[(4′-methylthio)uridin-5″-yl] ester [MRS2690] |  |  |  |  | Ca2+ signals evoked in cultured ASMC (P2Y14 receptors): Neither MRS2690 (10 µM) nor UDP-glucose (10 µM) evoked Ca^2+ signals
